# Results published in US8268635B2, “Methods of identifying agents that selectively activate p38 and/or NKkB signaling” (priority 2006, dated 2012).
# Where no end group is shown, it is not given here.
# Legend:
# ERK1/ERK2 [1] = assay: ERK1/ERK2 dual phosphorylation in HUVEC (western blot); assay type: cell-based, human; conditions: 15 min; TNF 100 U/ml, TNF70-80 10 μM
# Description: The level of myelin basic protein phosphorylation was quantitated by an Instant Imager.
# Western blot analysis was conducted as described previously (Hii, C. S., Huang, Z. H., Bilney, A., Costabile, M., Murray, A. W., Rathjen, D. A., Der, C. J., and Ferrante, A. (1998) J. Biol. Chem. 273: 19277-19282). Briefly, equal amounts of denatured protein from each lysate were separated by 12% SDS polyacrylamide gel electrophoresis (PAGE). The proteins were electrophoretically transferred to nitrocellulose membranes (Schleicher and Schuell, Keene, N. H., USA)(3 h at 40V). […] Immune complexes were visualised by enhanced chemiluminescence (Hii, C. S., Huang, Z. H., Bilney, A., Costabile, M., Murray, A. W., Rathjen, D. A., Der, C. J., and Ferrante, A. (1998) J. Biol. Chem. 273: 19277-19282).
# ASK-1 = ASK-1 autophosphorylation in HEK293T cells; assay type: cell-based, human; conditions: 3 or 7 min
# Description: GCKR was immunoprecipitated from cell lysates and activity assayed using myelin basic protein (MBP) as the substrate. […] Activation of ASK-1 was determined by kinase autophosphorylation.
# KHS (hereon referred to as “GCKR”) activity was assayed as described previously using myelin basic protein as a substrate (Shi, C. S., Leonardi, A., Kyriakis, J., Siebenlist, U., and Kerhl, J. H. (1999) J. Immunol. 163: 3279-3285). ASK-1 activation was determined in immunoprecipitates of ASK-1 by autophosphorylation (Kyriakis, J. M., and Auruch, J. (2001) Physiol. Rev. 81: 807-869). p38 and ERK activities were determined as described using myelin basic protein as a substrate (Hii, C. S., Huang, Z. H., Bilney, A., Costabile, M., Murray, A. W., Rathjen, D. A., Der, C. J., and Ferrante, A. (1998) J. Biol. Chem. 273: 19277-19282). […] A solid phase assay using glutathione-S-transferase (GST)-conjugated-jun (1-79) was employed to assay JNK activity (Hii, C. S., Huang, Z. H., Bilney, A., Costabile, M., Murray, A. W., Rathjen, D. A., Der, C. J., and Ferrante, A. (1998) J. Biol. Chem. 273: 19277-19282). Phosphorylated ASK-1, myelin basic protein and GST-jun (1-79) were fractionated on 8, 16 and 12% SDS polyacrylamide gels, respectively, and the bands were detected and radioactivity determined using an Instant Imager (Packard Instruments, Canberra, Australia).
# ERK1/ERK2 [2] = assay: ERK1/ERK2 activation in neutrophils in suspension; assay type: cell-based, human; conditions: TNF, TNF70-80 15 min; PMA 100 nM 5 min
# Description: The cells were lysed and the lysate assessed by western blot analysis for the level of dual-phosphorylated ERK1/ERK2 (top panel) and ERK2 protein (bottom panel). […] The level of myelin basic protein phosphorylation was quantitated by an Instant Imager.
# Neutrophils were prepared from peripheral blood of healthy donors by a rapid single-step technique (Kumaratilake, L. M., Rathjen, D. A., Mack, P., Widmer, F., Prasertsiriroj, V., and Ferrante, A. (1995) J. Clin. Invest. 95: 2315-2323) using Hypaque-Ficoll and according to the institution's guidelines on human ethics. […]
# (§1) KHS (hereon referred to as “GCKR”) activity was assayed as described previously using myelin basic protein as a substrate (Shi, C. S., Leonardi, A., Kyriakis, J., Siebenlist, U., and Kerhl, J. H. (1999) J. Immunol. 163: 3279-3285). ASK-1 activation was determined in immunoprecipitates of ASK-1 by autophosphorylation (Kyriakis, J. M., and Auruch, J. (2001) Physiol. Rev. 81: 807-869). p38 and ERK activities were determined as described using myelin basic protein as a substrate (Hii, C. S., Huang, Z. H., Bilney, A., Costabile, M., Murray, A. W., Rathjen, D. A., Der, C. J., and Ferrante, A. (1998) J. Biol. Chem. 273: 19277-19282). […]
# JNK = JNK activity in adherent neutrophils; assay type: cell-based, human; conditions: neutrophils pre-adhered to plasma-coated dishes; 15 min; TNF 1000 U/ml, TNF70-80 10 μM
# Description: (§2) Neutrophils were prepared from peripheral blood of healthy donors by a rapid single-step technique (Kumaratilake, L. M., Rathjen, D. A., Mack, P., Widmer, F., Prasertsiriroj, V., and Ferrante, A. (1995) J. Clin. Invest. 95: 2315-2323) using Hypaque-Ficoll and according to the institution's guidelines on human ethics. […] These were either used as cells in suspension or as adhered neutrophils by adding the cells to plasma coated plates as previously described (Powell, W., Gravel, S., Halwani, F., Hii, C. S., Huang, Z. H., Tan, A. M., and Ferrante, A. (1997) J. Immunol. 159: 2952-2959).
# as §1
# macrophage = conditions: previous comparisons; cited from earlier work
# ERK = ERK activation in adherent neutrophils; assay type: cell-based, human; conditions: neutrophils pre-adhered to plasma-coated dishes; 15 min; TNF 1000 U/ml, TNF70-80 10 μM
# Description: as §2, with “2952-2959). […]” for “2952-2959).”
# as §1
# [3] = tested on: mutant receptor peptide M4; assay: Binding of biotinylated TNF70-80 to mutant receptor peptide M4; parameters: species or system human; conditions: 20 μM biotinylated TNF70-80, 18 hrs at 37° C.
# Description: (§3) 100 μl of 0.7 mM solution of M4 or 1% BSA in PBS for control was coated on plates overnight for 24 hrs at 37° C. Plates were blocked for 6 hrs at 37° C. with 3% BSA in PBS. 100 μl of 20 μM of B-TNF70-80 was added to each well and allowed to incubate for 18 hrs at 37° C. Streptavidin-horseradish peroxidase and TMB H2O2 was added and bound product was detected by measuring absorbance at 450 nm.
# as §3, with “Streptvadin-horseradish” for “Streptavidin-horseradish”
substance,measurement,setting,value
PSTHVLITHTI-OH [TNF70-80],dual phosphorylation of the ERKs in HUVEC,ERK1/ERK2 [1],caused only negligible phosphorylation of the ERKs
same,ASK-1 autophosphorylation in HEK293T cells,ASK-1,did not affect the level of ASK-1 phosphorylation
same,activity/dual phosphorylation of ERK in neutrophils in suspension,ERK1/ERK2 [2],neither TNF nor TNF70-80 stimulated the activity of either JNK or ERK
same,activity of JNK in adherent neutrophils,JNK,but not TNF70-80 stimulated the activity of JNK
same,concentration that equates to 1000 U/ml of TNF in ability to stimulate nitric oxide production in macrophage,macrophage,5.0 µg/mL
same,ERK activation in adherent neutrophils,ERK,failed to stimulate the activation of the ERKs
same,binding to mutant receptor peptide M4 (truncated receptor),[3],binds to the truncated receptor
